This is an account of results in patent US6787315B2, “Methods for identifying ligand binding sites in a biomolecule” (priority 2001, dated 2004).

Holding throughout (set-up): species or system E. coli
Experiment [1] relates to modified 16S RNA (5′-PS-G1491; 3′-phosphorothioate at G1491, C12O6 PEG mass tag). Put plainly: ESI-FT-ICR MS ligand binding to 27-mer 16S RNA modified at G1491. How it is done:
(§1) The following examples illustrate preferred embodiments of the present invention using mass spectrometry. Experiments were performed using a 7.0 Tesla Fourier transform ion cyclotron resonance (FT-ICR) mass spectrometer with an electrospray ionization source operating in the negative mode. A −3000 V difference was employed between the spray tip and the inlet capillary to generate the electrospray. Samples were introduced at a flow rate of 1.5 uL/min using a Harvard syringe pump and a 50 uL glass syringe. The desolvation of the electrospray droplets was aided by a flow of countercurrent gas at 1 L/min. Ions were accumulated for 1.0 sec in an intermediate hexapole ion storage region at 1.0×10^−5 mbar. Following transfer to the FT-ICR analysis cell, the image current was measured over a mass range of 500-4000 m/z. Typically, a total of 32 transients containing 512 kbytes were summed prior to Fourier transformation. The m/z values were calibrated on the signal from the [M-5H^+]^5− charge state of the free RNA at 1726.509.
An aqueous solution containing 100 mM ammonium acetate buffer (pH 7.0), 33% isopropyl alcohol, gentamicin (1 μM), 16S RNA (5 μM) and a modified 16S RNA (5.5 μM) was prepared. Modified 27-mer 16S RNA contained a 3′-phosphorothioate residue at position G1491 at the position of a G-C base pair (E. coli numbering system) and a C12O6 PEG mass tag off the 5′-hydroxyl group. Mass spectra were obtained using the standard protocol described above. The resulting mass spectra contained identifiable peaks corresponding to free 16S RNA (m/z 1726.5), free modified 16S RNA(5′-PS-G1491; m/z 1779.3), 16S complexed with the three forms of gentamicin present in the sample (16S+genta; m/z 1816-1825), and 16S(5′-PS-G1491) complexed with the three forms of gentamicin (5′-PS-G1491+genta; m/z 1869-1875). The peaks from the complexes formed from the lowest mass form of gentamicin were integrated and ion abundances determined. Fractions of 16S+genta and 5′-PS-G1491+genta complexes were determined to be 0.127 and 0.140±0.01% for the free 16S RNA and 5′-PS-G1491 RNA, respectively.
An aqueous solution containing 100 mM ammonium acetate buffer (pH 7.0), 33% isopropyl alcohol, ribostamycin (1 μM), 16S RNA (5 μM) and a modified 16S RNA (5.5 uM) was prepared. Modified 27 mer 16S RNA contained a 3′-phosphorothioate residue at position G1491 at the position of a G-C base pair (E. coli numbering system) and a C12O6 PEG mass tag off the 5′-hydroxyl group. […] The peaks from the complexes formed between ribostamycin and the RNA were integrated and ion abundances determined. Fractions of 16S+ribost and 5′-PS-G1491+ribost complexes were determined to be 0.105 and 0.100±0.005% for the free 16S RNA and 5′-PS-G1491 RNA, respectively.

The test system of experiment [2] is modified 16S RNA (5IU1495; 5-iodouridine at position U1495, PEG-6 chain at 5′-hydroxyl). Kind of experiment: ESI-FT-ICR MS ligand binding to 27-mer 16S RNA modified at U1495. The conditions noted are these: Example 3: ribostamycin 2.5 μM. The method, then:
as §1, with “The m/z values were calibrated on the signal from the [M-5H^+]^5− charge state of the free RNA at 1726.509.” left out
An aqueous solution containing 50 mM ammonium acetate buffer (pH 7.0), 33% isopropyl alcohol, ribostamycin (2.5 μM), 16S RNA (2.5 μM) and a modified 16S RNA (2.5 μM) was prepared. […] The peaks were integrated and ion abundances determined. Fractions of 16S+ribost and 5IU1495+ribost complexes were determined to be 67.6% and 29.9±1% for the free 16S RNA and 5IU1495 RNA, respectively.

Experiment [3] deals with modified 16S RNA (5IU1406; 5-iodouridine at position U1406). Put plainly: ESI-FT-ICR MS ligand binding to 27-mer 16S RNA modified at U1406. The conditions noted are these: Example 2: gentamicin 2 μM. The method, then:
as §1
An aqueous solution containing 100 mM ammonium acetate buffer (pH 7.0), 33% isopropyl alcohol, gentamicin (2 μM), 16S RNA (2.5 μM) and a modified 16S RNA (2.5 μM) was prepared. […] The peaks were integrated and ion abundances determined. Fractions of 16S+genta and 5IU1406+genta complexes were determined to be 66.8% and 28.1±1% for the free 16S RNA and 5IU1406 RNA, respectively.

Experiment [4] deals with modified 16S RNA (5IUtetra; 5-iodouridine at position 13 in the UUCG tetraloop). Put plainly: ESI-FT-ICR MS ligand binding to 27-mer 16S RNA modified at the tetraloop. How it is done:
as §1, with “The m/z values were calibrated on the signal from the [M-5H^+]^5− charge state of the free RNA at 1726.509.” left out
An aqueous solution containing 100 mM ammonium acetate buffer (pH 7.0), 33% isopropyl alcohol, gentamicin (2 μM, present in three forms), 16S RNA (2.5 μM) and a modified 16S RNA (2.5 μM) was prepared. […] The peaks were integrated and ion abundances determined. Fractions of 16S+genta and 5IUtetra+genta complexes were determined to be 70.4% and 68.2±1% for the free 16S RNA and 5IUtetraRNA, respectively.

Take `NC[C@H]1O[C@H](O[C@H]2[C@H](O[C@@H]3O[C@H](CO)[C@@H](O)[C@H]3O)[C@@H](O)[C@H](N)C[C@@H]2N)[C@H](N)[C@@H](O)[C@@H]1O` [ribostamycin]: the “Amount of 5′-PS-G1491+ribost as % of the amount of 16S+ribost” value in experiment [1] (Example 5: ribostamycin 1 μM) amounted to 94%. The “Fraction of 5′-PS-G1491+ribost complex” value in experiment [1] (Example 5: ribostamycin 1 μM, 16S RNA 5 μM with 5′-PS-G1491 RNA 5.5 uM, 100 mM ammonium acetate pH 7.0, 33% isopropyl alcohol) is reported as 0.100±0.005%. Further, in experiment [2], the “Amount of 5IU1495+ribost as % of the amount of 16S+ribost” value amounted to 44%. Further, the “Fraction of 5IU1495+ribost complex” value in experiment [2] (16S RNA 2.5 μM with 5IU1495 RNA 2.5 μM, 50 mM ammonium acetate pH 7.0, 33% isopropyl alcohol) turned out to be 29.9±1%.

With gentamicin, the “Amount of 5IU1406+genta as % of the amount of 16S+genta” value in experiment [3] came out at 42%. For the same compound, the “Fraction of 5IU1406+genta complex” value in experiment [3] (16S RNA 2.5 μM with 5IU1406 RNA 2.5 μM, 100 mM ammonium acetate pH 7.0, 33% isopropyl alcohol) worked out at 28.1±1%. The “Amount of 5′-PS-G1491+genta as % of the amount of 16S+genta” value in experiment [1] (Example 4: gentamicin 1 μM) was found to be 110%. In addition, the “Fraction of 5′-PS-G1491+genta complex” value in experiment [1] (Example 4: gentamicin 1 μM (lowest mass form integrated), 16S RNA 5 μM with 5′-PS-G1491 RNA 5.5 μM, 100 mM ammonium acetate pH 7.0, 33% isopropyl alcohol) is recorded as 0.140±0.01 fraction (unitless). The “Effect of 5-iodouridine residue in the tetraloop on the abundance of the gentamicin-RNA complex” value in experiment [4] (Example 1: 5IUtetra versus 16S RNA) is “no effect”. For the same compound, the “Fraction of 5IUtetra+genta complex” value in experiment [4] (Example 1: gentamicin 2 μM (three forms), 16S RNA 2.5 μM with 5IUtetra RNA 2.5 μM, 100 mM ammonium acetate pH 7.0, 33% isopropyl alcohol) amounted to 68.2±1%.
